{"source": "ChEMBL document CHEMBL1201862", "about": "“PubChem BioAssay data set” (2004)", "key": {"[1]": {"molecular_target": "T1, Small ubiquitin-related modifier 1 (Homo sapiens, UniProt P63165)", "T1 sequence (P63165 whole entry)": "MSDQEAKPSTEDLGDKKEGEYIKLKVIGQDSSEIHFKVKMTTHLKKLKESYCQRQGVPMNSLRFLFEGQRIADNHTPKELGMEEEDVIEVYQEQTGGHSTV", "assay": "inhibitors of SUMO1 peptide binding, dose response, biochemical, fluorescence polarization, uHTS hits (AID 624382)", "assay_type": "functional", "conditions": "read-out: IC50_Mean"}, "[2]": {"molecular_target": "Beta-adrenergic receptor kinase 1 (Homo sapiens, UniProt P25098)", "assay": "GRK2 inhibitors displacing RNA aptamer, dose response, biochemical, flow cytometry beads, FAM-aptamer, powder set 1 (AID 588720)"}, "[3]": {"molecular_target": "Peroxisome proliferator-activated receptor gamma/Nuclear receptor corepressor 2 (Homo sapiens, UniProt P37231+Q9Y618)", "sequence (P37231 whole entry)": "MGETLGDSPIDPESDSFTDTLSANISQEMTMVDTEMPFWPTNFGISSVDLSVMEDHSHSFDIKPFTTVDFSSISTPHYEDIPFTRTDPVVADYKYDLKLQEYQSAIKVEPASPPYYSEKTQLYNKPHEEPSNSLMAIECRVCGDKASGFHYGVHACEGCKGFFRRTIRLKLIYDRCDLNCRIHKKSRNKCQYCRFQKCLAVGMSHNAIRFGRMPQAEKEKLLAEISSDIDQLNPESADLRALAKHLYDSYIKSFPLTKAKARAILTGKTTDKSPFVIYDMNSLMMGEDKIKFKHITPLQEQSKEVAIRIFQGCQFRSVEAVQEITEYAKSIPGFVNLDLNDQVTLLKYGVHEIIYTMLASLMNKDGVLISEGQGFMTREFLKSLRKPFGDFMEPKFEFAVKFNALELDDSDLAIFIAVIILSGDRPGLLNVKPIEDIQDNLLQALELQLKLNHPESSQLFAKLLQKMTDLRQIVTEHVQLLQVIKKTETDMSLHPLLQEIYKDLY", "sequence (Q9Y618 whole entry)": "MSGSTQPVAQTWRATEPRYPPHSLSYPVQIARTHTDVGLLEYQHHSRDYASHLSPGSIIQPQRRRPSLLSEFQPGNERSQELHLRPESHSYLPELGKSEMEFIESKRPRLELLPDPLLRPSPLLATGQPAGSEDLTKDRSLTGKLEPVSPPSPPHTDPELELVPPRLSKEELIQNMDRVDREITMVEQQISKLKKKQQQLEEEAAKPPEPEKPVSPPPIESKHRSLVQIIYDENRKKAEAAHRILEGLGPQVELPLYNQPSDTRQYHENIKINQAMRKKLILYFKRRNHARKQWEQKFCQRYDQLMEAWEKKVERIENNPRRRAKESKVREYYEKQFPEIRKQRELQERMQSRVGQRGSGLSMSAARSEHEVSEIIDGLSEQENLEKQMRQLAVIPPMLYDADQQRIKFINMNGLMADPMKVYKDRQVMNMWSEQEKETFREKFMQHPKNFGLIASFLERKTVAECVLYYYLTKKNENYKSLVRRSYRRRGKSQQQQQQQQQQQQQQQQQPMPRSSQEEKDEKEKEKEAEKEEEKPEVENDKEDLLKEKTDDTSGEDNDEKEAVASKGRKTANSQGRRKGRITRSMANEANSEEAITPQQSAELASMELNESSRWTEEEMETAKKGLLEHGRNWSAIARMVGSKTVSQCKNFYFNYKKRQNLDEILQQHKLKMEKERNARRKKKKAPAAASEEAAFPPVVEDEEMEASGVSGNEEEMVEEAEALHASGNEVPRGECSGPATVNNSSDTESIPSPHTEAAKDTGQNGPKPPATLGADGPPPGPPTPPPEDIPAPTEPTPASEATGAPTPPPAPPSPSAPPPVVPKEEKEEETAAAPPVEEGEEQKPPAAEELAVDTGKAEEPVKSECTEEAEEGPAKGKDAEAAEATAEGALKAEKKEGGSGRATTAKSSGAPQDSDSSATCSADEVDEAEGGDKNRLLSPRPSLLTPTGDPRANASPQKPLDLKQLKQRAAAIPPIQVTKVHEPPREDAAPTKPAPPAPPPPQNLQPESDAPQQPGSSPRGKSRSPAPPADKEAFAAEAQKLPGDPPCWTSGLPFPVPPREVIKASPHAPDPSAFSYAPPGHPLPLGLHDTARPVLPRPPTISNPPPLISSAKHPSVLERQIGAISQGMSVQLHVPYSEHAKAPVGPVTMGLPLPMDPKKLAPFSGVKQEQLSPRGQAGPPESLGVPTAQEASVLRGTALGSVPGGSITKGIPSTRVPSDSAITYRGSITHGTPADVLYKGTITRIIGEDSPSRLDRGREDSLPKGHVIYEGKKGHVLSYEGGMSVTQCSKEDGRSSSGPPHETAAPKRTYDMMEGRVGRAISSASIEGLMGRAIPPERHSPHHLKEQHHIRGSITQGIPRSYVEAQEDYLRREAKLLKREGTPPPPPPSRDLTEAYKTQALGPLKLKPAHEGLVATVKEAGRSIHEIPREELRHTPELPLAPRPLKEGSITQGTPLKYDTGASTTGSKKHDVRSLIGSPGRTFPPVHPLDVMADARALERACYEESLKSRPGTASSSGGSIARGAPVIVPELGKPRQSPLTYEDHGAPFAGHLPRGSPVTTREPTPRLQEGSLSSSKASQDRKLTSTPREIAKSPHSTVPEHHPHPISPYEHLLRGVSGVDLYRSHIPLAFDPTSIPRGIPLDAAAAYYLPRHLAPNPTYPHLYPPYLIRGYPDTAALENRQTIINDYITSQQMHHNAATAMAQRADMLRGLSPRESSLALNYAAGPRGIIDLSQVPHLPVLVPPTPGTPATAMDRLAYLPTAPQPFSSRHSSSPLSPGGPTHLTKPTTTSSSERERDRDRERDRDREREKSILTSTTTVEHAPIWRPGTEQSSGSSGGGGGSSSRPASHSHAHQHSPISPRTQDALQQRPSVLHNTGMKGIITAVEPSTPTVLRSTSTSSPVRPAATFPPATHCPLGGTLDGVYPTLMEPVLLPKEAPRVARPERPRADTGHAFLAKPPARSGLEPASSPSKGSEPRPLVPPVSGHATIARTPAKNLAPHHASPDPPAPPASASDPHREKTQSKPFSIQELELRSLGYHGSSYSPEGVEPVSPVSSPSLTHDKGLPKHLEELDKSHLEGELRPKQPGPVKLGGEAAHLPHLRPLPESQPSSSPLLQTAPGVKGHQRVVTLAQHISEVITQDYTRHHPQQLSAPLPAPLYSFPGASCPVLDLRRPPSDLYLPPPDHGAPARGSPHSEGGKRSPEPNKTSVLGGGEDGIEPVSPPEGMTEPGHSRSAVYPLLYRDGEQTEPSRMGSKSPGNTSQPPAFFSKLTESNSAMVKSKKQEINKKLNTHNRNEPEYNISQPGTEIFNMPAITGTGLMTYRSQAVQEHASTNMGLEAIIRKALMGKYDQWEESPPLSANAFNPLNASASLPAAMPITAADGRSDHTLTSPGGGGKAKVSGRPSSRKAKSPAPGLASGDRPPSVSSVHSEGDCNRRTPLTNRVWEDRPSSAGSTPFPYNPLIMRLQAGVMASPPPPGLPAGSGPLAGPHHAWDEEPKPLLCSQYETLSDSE", "assay": "Counterscreen for NR2E3 inverse agonists: TR-FRET-based biochemical high throughput dose response assay to identify inverse agonists of the interaction between peroxisome proliferator-activated receptor gamma (PPARg) and nuclear receptor co-repressor 2 (NCOR2).", "assay_type": "functional"}, "[4]": {"molecular_target": "T1, Small ubiquitin-related modifier 1", "assay": "inhibitors of SUMO1 partner interactions, dose response, biochemical, FRET (AID 624383)", "assay_type": "functional", "conditions": "read-out: IC50_Mean"}, "[5]": {"molecular_target": "Photoreceptor-specific nuclear receptor (Homo sapiens, UniProt Q9Y5X4)", "sequence (Q9Y5X4 whole entry)": "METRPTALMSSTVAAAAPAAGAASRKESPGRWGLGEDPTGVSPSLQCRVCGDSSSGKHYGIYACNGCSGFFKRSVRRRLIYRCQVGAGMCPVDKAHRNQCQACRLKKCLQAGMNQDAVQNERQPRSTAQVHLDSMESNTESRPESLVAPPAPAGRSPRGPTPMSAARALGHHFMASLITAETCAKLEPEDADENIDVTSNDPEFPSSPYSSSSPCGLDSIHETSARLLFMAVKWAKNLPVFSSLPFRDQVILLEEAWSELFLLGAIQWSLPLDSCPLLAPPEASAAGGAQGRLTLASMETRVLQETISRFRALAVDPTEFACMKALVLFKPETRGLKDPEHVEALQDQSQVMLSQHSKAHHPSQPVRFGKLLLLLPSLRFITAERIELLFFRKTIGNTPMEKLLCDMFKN", "assay": "NR2E3 inverse agonists, dose response, biochemical, TR-FRET (AID 463256)", "assay_type": "functional"}, "[6]": {"molecular_target": "T2, Dual specificity protein phosphatase 3 (Homo sapiens, UniProt P51452)", "T2 sequence (P51452 whole entry)": "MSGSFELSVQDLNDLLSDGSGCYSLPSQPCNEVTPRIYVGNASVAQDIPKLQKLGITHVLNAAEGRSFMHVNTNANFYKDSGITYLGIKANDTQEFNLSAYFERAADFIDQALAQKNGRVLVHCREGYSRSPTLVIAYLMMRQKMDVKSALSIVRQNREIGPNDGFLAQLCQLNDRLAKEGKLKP", "assay": "SAR VHR1 Fluorescent Assay for In Vitro dose response studies. [Related pubchem assays (depositor defined):AID1654, AID1661, AID1878, AID1992, AID2004, AID2070, AID2085]", "assay_type": "functional"}, "[7]": {"molecular_target": "T3, Polyadenylate-binding protein 1 (Homo sapiens, UniProt P11940)", "T3 sequence (P11940 whole entry)": "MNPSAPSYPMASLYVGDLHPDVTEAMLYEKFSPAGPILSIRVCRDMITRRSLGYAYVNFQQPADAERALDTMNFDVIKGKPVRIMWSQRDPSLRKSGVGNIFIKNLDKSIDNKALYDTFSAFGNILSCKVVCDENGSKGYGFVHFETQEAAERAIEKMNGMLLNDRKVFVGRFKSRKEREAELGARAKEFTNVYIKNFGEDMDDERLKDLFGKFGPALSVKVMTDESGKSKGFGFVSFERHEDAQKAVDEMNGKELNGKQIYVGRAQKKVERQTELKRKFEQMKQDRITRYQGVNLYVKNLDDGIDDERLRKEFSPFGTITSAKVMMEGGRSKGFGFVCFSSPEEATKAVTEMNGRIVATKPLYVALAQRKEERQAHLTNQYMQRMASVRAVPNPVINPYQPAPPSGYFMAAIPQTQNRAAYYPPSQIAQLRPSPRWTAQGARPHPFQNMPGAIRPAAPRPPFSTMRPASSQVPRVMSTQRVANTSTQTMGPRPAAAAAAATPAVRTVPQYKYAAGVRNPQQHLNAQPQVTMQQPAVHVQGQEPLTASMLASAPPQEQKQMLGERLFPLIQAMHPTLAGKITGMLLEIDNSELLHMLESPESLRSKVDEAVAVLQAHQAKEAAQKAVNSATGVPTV", "assay": "PABP1 MLLE–PAM2 binding inhibitor potency, dose response, biochemical, fluorescence polarization, FITC-PAM2 peptide (AID 602259)", "assay_type": "functional", "conditions": "read-out: IC50_Mean"}, "[8]": {"molecular_target": "T2, Dual specificity protein phosphatase 3", "assay": "SAR VHR1 absorbance Assay for In Vitro dose response studies. [Related pubchem assays (depositor defined):AID1654, AID1661, AID1878, AID1992, AID2004]"}, "[9]": {"molecular_target": "T3, Polyadenylate-binding protein 1", "assay": "PABP1 MLLE–PAM2 interaction inhibitors, dose response, miRNA deadenylation inhibitor project, biochemical, fluorescence polarization, Cy5-PAM2 peptide, secondary (AID 602260)", "assay_type": "functional", "conditions": "read-out: IC50_Mean"}, "[10]": {"molecular_target": "T4, Tyrosine-protein phosphatase non-receptor type 7 (Homo sapiens, UniProt P35236)", "T4 sequence (P35236 whole entry)": "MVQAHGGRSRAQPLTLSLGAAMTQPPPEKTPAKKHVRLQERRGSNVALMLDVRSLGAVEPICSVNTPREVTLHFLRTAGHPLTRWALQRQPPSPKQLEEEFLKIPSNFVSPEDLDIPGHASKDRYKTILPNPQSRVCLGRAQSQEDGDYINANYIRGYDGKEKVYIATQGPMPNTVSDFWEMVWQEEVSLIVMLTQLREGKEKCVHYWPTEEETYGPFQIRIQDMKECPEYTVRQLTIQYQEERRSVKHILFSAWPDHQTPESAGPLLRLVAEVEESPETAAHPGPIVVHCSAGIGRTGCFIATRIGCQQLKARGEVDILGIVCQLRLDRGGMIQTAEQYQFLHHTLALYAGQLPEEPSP", "assay": "redox-dependent HePTP inhibition, mechanism study, biochemical, fluorescence (AID 2068)", "assay_type": "functional"}, "[11]": {"molecular_target": "Dual specificity protein phosphatase 6 (Rattus norvegicus, UniProt Q64346)", "assay_type": "functional"}, "[12]": {"molecular_target": "T2, Dual specificity protein phosphatase 3", "assay": "MOA VHR1 Fluorescent secondary assay for identification of redox-state modulating compounds. [Related pubchem assays (depositor defined):AID1654, AID1661, AID1878, AID1957]"}, "[13]": {"test_system": "CHO", "assay": "cytotoxicity in TLR9-MyD88 CHO cells, dose response, cytotoxicity control for TLR9-MyD88 binding inhibitor project, cell-based, luminescence (AID 588339);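 note: CHO cells stably coexpressing TLR9 and MyD88 fusions from primary screen; compound exposure lasted 48 hours before viability readout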", "assay_type": "functional, hamster", "conditions": "Cricetulus griseus"}, "[14]": {"molecular_target": "T5, Insulin-degrading enzyme (Homo sapiens, UniProt P14735)", "T5 sequence (P14735 whole entry)": "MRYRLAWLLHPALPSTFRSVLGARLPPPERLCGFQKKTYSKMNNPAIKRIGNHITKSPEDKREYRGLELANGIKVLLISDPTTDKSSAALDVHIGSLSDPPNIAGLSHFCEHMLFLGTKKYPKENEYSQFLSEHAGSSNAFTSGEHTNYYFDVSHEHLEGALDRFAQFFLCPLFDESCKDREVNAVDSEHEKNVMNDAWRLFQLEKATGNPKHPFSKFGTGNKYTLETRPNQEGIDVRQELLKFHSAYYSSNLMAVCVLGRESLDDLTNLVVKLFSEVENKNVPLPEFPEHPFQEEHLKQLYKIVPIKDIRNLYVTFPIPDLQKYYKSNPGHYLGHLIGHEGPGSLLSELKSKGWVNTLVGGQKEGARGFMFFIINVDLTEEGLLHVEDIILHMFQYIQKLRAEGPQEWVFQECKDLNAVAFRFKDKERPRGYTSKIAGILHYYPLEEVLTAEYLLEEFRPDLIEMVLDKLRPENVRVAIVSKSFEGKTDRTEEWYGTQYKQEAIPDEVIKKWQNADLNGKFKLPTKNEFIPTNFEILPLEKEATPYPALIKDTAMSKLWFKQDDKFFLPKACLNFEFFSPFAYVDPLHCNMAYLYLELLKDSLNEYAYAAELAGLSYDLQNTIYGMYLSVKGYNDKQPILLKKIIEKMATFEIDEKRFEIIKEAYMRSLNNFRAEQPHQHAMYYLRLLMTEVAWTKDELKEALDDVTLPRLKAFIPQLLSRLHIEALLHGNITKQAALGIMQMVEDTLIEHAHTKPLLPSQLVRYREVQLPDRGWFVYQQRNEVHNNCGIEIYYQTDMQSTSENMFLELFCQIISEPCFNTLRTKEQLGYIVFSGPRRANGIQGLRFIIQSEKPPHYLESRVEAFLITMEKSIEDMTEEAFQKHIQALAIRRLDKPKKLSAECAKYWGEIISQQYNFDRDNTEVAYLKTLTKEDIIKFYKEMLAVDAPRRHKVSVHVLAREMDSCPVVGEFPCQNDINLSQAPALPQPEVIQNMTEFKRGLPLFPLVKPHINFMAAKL", "assay": "activators of recombinant IDE enzyme, dose response, counter-screen for IDE activator project, biochemical, fluorescence polarization (AID 588681)"}, "[15]": {"molecular_target": "T5, Insulin-degrading enzyme", "assay": "activators of endogenous IDE in HEK cells, dose response, cell-based, fluorescence polarization (AID 588439)", "assay_type": "functional"}, "[16]": {"test_system": "HEK293", "assay": "HEK cell cytotoxicity by LDH release, dose response, cytotoxicity control for IDE activator project, fluorescence, HEK cells (AID 588440);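 note: cytotoxicity by LDH release measuring loss of membrane integrity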", "assay_type": "functional, cell-based", "conditions": "Homo sapiens"}, "[17]": {"test_system": "HEK293", "assay": "optical interference in Abeta FP readout, dose response, artefact control for IDE activator project, biochemical, fluorescence polarization (AID 588442)", "assay_type": "functional, cell-based", "conditions": "Homo sapiens"}, "[18]": {"molecular_target": "Keap1/Nrf2 (Homo sapiens, UniProt Q14145)", "assay": "Keap1-Nrf2 protein-protein interaction inhibitors, dose response, biochemical, fluorescence polarization, cherry-picked samples (AID 588683)"}, "[19]": {"molecular_target": "Beta Lactamase (Pseudomonas aeruginosa, UniProt Q932Y6)", "sequence (Q932Y6 whole entry)": "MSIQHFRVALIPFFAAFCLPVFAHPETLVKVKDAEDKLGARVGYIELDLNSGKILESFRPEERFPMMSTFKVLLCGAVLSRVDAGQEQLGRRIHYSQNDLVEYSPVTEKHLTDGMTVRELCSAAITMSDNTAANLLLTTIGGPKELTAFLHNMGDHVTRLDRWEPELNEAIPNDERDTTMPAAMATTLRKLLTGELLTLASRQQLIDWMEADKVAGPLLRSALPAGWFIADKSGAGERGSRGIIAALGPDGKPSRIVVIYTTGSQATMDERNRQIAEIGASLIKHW", "assay": "beta-lactamase reporter inhibitor potency, dose response, artefact control for TLR9-MyD88 binding inhibitor project, BLA reporter cells, FRET fluorescence (AID 588341);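 note: cell based assay in CHO-K1 cells stably expressing beta-lactamase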", "assay_type": "cell-based"}, "[20]": {"molecular_target": "UDP-galactopyranose mutase (Mycobacterium tuberculosis, UniProt P9WIQ1)", "sequence (P9WIQ1 whole entry)": "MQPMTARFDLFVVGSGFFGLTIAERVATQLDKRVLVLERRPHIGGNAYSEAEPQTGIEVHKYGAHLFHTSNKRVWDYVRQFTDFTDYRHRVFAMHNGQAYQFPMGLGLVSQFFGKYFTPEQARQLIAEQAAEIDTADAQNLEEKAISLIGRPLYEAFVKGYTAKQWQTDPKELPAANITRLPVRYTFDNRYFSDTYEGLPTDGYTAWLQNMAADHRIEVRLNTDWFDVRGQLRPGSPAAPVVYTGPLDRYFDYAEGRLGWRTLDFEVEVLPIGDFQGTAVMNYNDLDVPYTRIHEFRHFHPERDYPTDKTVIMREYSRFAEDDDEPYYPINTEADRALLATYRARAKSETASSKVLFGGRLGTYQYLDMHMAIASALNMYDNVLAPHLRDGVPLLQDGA", "assay": "Inhibitors of Mycobacterium tuberculosis UDP-galactopyranose mutase (UGM) enzyme Measured in Biochemical System Using Plate Reader - 2105-02_Inhibitor_Dose_CherryPick_Activity. [Related pubchem assays (depositor defined):AID504439]"}, "[21]": {"molecular_target": "ORF 73 (Human herpesvirus 8, UniProt O40947)", "assay": "inhibitors of C-LANA binding to LBS DNA, dose response, biochemical, fluorescence polarization, cherry-picked samples (AID 504725);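 note: fluorescence polarization of a labeled DNA duplex reporting LANA DNA binding; potency is for inhibitors that block LANA binding to the DNA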", "set-up": "species or system Human gammaherpesvirus 8"}}, "note": "Activity calls are given as the source filed them.", "data": [{"compound": "CCOc1ccc(NC(=O)CCS(=O)(=O)c2ccc(Br)cc2)cc1", "values": [{"measurement": "IC50", "setting": "[1]", "result": "> 66.6 µM (inactive)"}, {"measurement": "EC50", "setting": "[2]", "result": "0.277 µM (inactive)"}, {"measurement": "IC50", "setting": "[3]", "result": "13.6 µM (not active)"}, {"measurement": "IC50", "setting": "[4]", "result": "12.8 µM (active)"}, {"measurement": "IC50", "setting": "[5]", "result": "8.87 µM (active)"}]}, {"compound": "COc1cc(C(=S)N2CCC(C)CC2)ccc1O", "values": [{"measurement": "IC50", "setting": "[6]", "result": "30.4 µM (active)"}, {"measurement": "IC50", "setting": "[7]", "result": "> 66 µM (inactive)"}, {"measurement": "IC50", "setting": "[8]", "result": "> 100 µM (inactive)"}, {"measurement": "IC50", "setting": "[9]", "result": "> 66 µM (inactive)"}, {"measurement": "IC50", "setting": "[10]", "result": "1.61 µM (active)"}, {"measurement": "IC50", "setting": "[11]", "result": "> 100 µM (inactive)"}, {"measurement": "IC50", "setting": "[12]", "result": "1.21 µM (active)"}]}, {"compound": "CC(C)CCN1C(=O)c2cccc3c(N)ccc(c23)C1=O", "values": [{"measurement": "IC50", "setting": "[13]", "result": "> 49.8 µM (inactive)"}, {"measurement": "EC50", "setting": "[14]", "result": "> 54.7 µM (inactive)"}, {"measurement": "EC50", "setting": "[15]", "result": "> 54.7 µM (inactive)"}, {"measurement": "IC50", "setting": "[16]", "result": "> 89.3 µM (inactive)"}, {"measurement": "EC50", "setting": "[17]", "result": "13.2 µM (inactive)"}, {"measurement": "AC50", "setting": "[18]", "result": "1.71 µM (active)"}, {"measurement": "IC50", "setting": "[19]", "result": "4.77 µM (active)"}, {"measurement": "AC50", "setting": "[20]", "result": "2.84 µM (active)"}, {"measurement": "AC50", "setting": "[21]", "result": "5.98 µM (active)"}]}]}
